Experimental data reported in PubChem BioAssay AID652053 (Broad Institute, 2013).

System: Huh7 psiCHECK-miR122 Renilla luciferase reporter, 48 h
Test: suppression of miR-122 activity, Renilla luciferase sensor – cell-based, Huh7 psiCHECK-miR122, cherry-pick, dose response (AID 652053)

| SMILES | AC40 [µM] |
| --- | --- |
| Cc1ccc(CN2CCSc3ccc(C(=O)NCc4ccco4)cc32)cc1 | 11.3 |
| O=S(=O)(c1ccccc1)c1cc(O)ccc1O | 11.5 |
| Cc1ccccc1S(=O)(=O)N1CC[C@@H]2[C@@H](CO)Nc3ccc(-c4ccc(F)cc4)cc3[C@@H]21 | 1 |
| C[C@@H]1CN([C@H](C)CO)C(=O)c2cccc(NC(=O)Nc3ccccc3)c2O[C@H]1CN(C)Cc1ccc(C(F)(F)F)cc1 | 3.22 |
| CC(=O)Nc1ccc(NS(=O)(=O)c2ccc3ccccc3c2)cc1 | 14.3 |
| COc1ccc(NC(=O)CCC(=O)c2cccs2)cc1S(=O)(=O)Nc1ccc(Cl)cc1 | 0.884 |
| COc1ccc(S(=O)(=O)Nc2cc(C)ccc2OC)cc1C | 3.63 |
| Cc1ccc2ccccc2c1C(O)c1ncc(-c2ccccc2F)[nH]1 (stereo not given) | 4.22 |
| CC(=O)c1ccc(NS(=O)(=O)c2ccc3c(c2)N(C)CCO3)cc1 | 3.6 |
| O=C1c2ccccc2C2=Nc3ccccc3SC(c3cccc(F)c3)C12 (stereo not given) | 7.63 |
| CCc1ccc(-c2cc(C)no2)cc1S(=O)(=O)NC(C)Cc1ccco1 (stereo not given) | < 0.26 |
| O=C1NC(=O)C(CCc2ccncc2)(Cc2cccc(Cl)c2Cl)C(=O)N1c1ccc(Br)cc1 (stereo not given) | 2.98 |
| Cc1ccc(C)c(S(=O)(=O)NCCCc2ccccc2)c1 | 3.15 |
| Cc1ccc(C)c(S(=O)(=O)Nc2ccc3scnc3c2)c1 | 0.899 |
| O=S(=O)(Nc1ccc(C(O)(C(F)(F)F)C(F)(F)F)cc1)c1cccc2cccnc12 | 9.64 |
| Cc1ccc(S(=O)(=O)NC(=NCc2ccccc2)c2ccc(F)cc2)cc1 | 5.08 |
| CCc1c(C(=O)NC2CCCc3ccccc32)[nH]c(C)c1C(C)=O (stereo not given) | 9 |
| C[C@@H]1CN([C@H](C)CO)S(=O)(=O)c2ccc(-c3ccc(F)cc3)cc2O[C@@H]1CN(C)Cc1ccccc1C(=O)O | 5.45 |
| COc1ccc(NS(=O)(=O)c2cc(NC(=O)c3ccco3)ccc2N2CCCCC2)cc1 | < 0.26 |
| CC(NC(=O)COc1ccccc1)C(=O)OCC(=O)c1cc2ccccc2o1 (stereo not given) | 33.5 |
| Cc1ccc(C(=O)NCCSc2ccc(Cl)cc2)cc1S(=O)(=O)Nc1ccccc1 | 4.3 |
| CSc1ccc(S(=O)(=O)NC2CCCCCC2)cc1 | 1.72 |
| Cc1ccc(S(=O)(=O)Nc2ccc3c4c(cccc24)CC3)c(C)c1 | 6.8 |
| COc1ccc(NS(=O)(=O)c2ccc(OC)c3ccccc23)cn1 | 2.67 |
| CCOc1ccccc1N(CC(=O)Nc1cccnc1)S(=O)(=O)c1ccc(C)cc1 | 8.03 |

| SMILES | AC40 [µM] |
| --- | --- |
| CCOc1cc(C)c(Cl)cc1S(=O)(=O)NC1CC(C)(C)NC(C)(C)C1 | 6.39 |
| CCCCNS(=O)(=O)c1ccc2nc(-c3cccnc3)cc(C(=O)NC3CCCC3)c2c1 | 5.37 |
| COc1ccc(NS(=O)(=O)c2cc(C)ccc2OC)cc1OC | 3.76 |
| CC1CCCC(NS(=O)(=O)c2ccc3c(c2)OCCO3)C1C (stereo not given) | 3.1 |
| COc1ccc(CNS(=O)(=O)c2cc(-c3cc(C)no3)ccc2C(C)C)cc1 | 3.69 |
| COc1ccccc1NS(=O)(=O)c1cc(NC(=O)c2sccc2C)ccc1N1CCCC1 | 1.12 |
| COc1ccc(S(=O)(=O)NCc2ccccc2)cc1Br | 5.07 |
| Cc1ccc(C)c(S(=O)(=O)NC(C)CCc2ccccc2)c1 (stereo not given) | 3.81 |
| C/C(=N\Nc1ccccn1)c1ccc(S(=O)(=O)NCc2ccco2)cc1 | 6.97 |
| Cc1ccc(-c2cnc(C3CC3)o2)cc1S(=O)(=O)Nc1ccccc1 | 3.08 |
| Cc1ccc(S(=O)(=O)NCCC2=CCCCC2)cc1 | 5.27 |
| C[C@H](CO)N1C[C@H](C)[C@H](CN(C)CC2CCCCC2)Oc2c(NC(=O)C3CCOCC3)cccc2C1=O | 1.95 |
| Cc1ccc(C2CC(c3cccs3)=NN2S(=O)(=O)c2ccc(C)cc2)cc1 (stereo not given) | 8.19 |
| Cc1cc(S(=O)(=O)Nc2cccc(O)c2)c(C)s1 | 31 |
| CC(C)(C)NS(=O)(=O)c1ccc(OCC(=O)Nc2ccc3c(c2)OCCO3)cc1 | 14.7 |
| COCCNC(=O)C[C@@H]1CC[C@H]2[C@H](COc3ccc(NC(=O)Cc4ccccc4)cc3C(=O)N2C)O1 | 1.34 |
| COc1ccc(S(=O)(=O)N(C)C[C@H]2Oc3ccc(NC(=O)Nc4ccc(C(F)(F)F)cc4)cc3C(=O)N([C@H](C)CO)C[C@H]2C)cc1 | 1.81 |
| COc1ccc(NS(=O)(=O)c2cc(NC(=O)c3cccc(OCc4c(C)noc4C)c3)ccc2OC)cc1 | 2.57 |
| COc1ccc(C)cc1S(=O)(=O)NC1CCCCC1 | 1.31 |
| N#Cc1c(NC(=O)c2ccccc2)sc2c1CCC2 | 29 |
| Cc1cc(C)cc(NS(=O)(=O)c2ccc(NC(=S)NC(=O)c3cccs3)cc2)c1 | < 0.26 |
| Cc1ccc(C)c(S(=O)(=O)Nc2ccc3sc(C)nc3c2)c1 | 1.5 |
| CC1CCCCN1C(=O)c1cc2nc(-c3ccccc3)cc(-c3ccccc3)n2n1 (stereo not given) | 2.46 |
| O=C(Nc1nc2ccc(S(=O)(=O)N3CCCC3)cc2s1)C1CCCCC1 | 14.8 |
| COc1cc(OC)c(NS(=O)(=O)c2ccc(Cl)c(C(=O)OC(C)C(=O)N3CCCC3)c2)cc1Cl (stereo not given) | 8.08 |
